In patent US20230390406A1, “Star Polymer Drug Conjugates” (Vaccitech North America, Inc., priority 2020, published 2023):
Where a SMILES comes first, the peptide text is derived from it.

How the values were obtained:
human cathepsin B = biological target: T1, human cathepsin B (Homo sapiens, UniProt P07858); test: Cleavage of AMC-peptides by cathepsin B (HPLC, 350 nm); type: biochemical; conditions: pH 5, 37° C., up to 6 hrs
T1 construct: purchased Sino Biological
Procedure: (§1) A series of peptide-based small molecules were screened in vitro to characterize their lability in human cathepsin B and mouse plasma enzymes. The screening protocol was adapted from literatures^1,2 and is shown below in FIGS. 31 and 32. In short, a small library of peptides conjugated to 7-amino-4-methylcoumarin (AMC-peptides) were synthesized by standard solid-phase peptide synthesis (SPPS) by Genscript (Piscataway, NJ), as summarized in the Table 18. They were first dissolved in DMSO as 10 mM stock solution and then incubated in the presence of PBS buffer (Gibco, 10010-031), cathepsin B (Sino Biological, protein human recombinant), and mouse plasma (BioIVT, C57BL/6 li-hep pooled, female). Substrates of either cathepsin B or plasma enzymes (and not PBS) afforded cleavage of the peptide-AMC bond. The resultant free AMC elutes at a different time from the parent AMC-conjugated peptides on the HPLC, thereby the linker degradation was monitored and quantified over time (i.e., 5 min, 1 hr and 6 hrs). PBS buffer solution was used as the matrix for the negative control. Cleavage of cathepsin B substrate Ill (Millipore Sigma, 219392) served as the positive control.
(§2) The stability of the analyte peptide was determined by the comparing the area-under-curve (AUC) of analyte peaks at 350 nm following formula: […]

mouse plasma enzymes = test: Stability of AMC-peptides in mouse plasma (HPLC, 350 nm); type: in vitro ADME; conditions: up to 6 hrs
Procedure: Peptide linker stock solutions (10 mM in DMSO) are diluted to 1 mM and then incubated with mouse plasma; aliquots are removed, blood proteins are precipitated with cold acetonitrile, pelleted with centrifugation, and the supernatant analyzed by HPLC.
as §1, §2

[1] = Particle / hydrodynamic size (Rh, Dh) by dynamic light scattering; type: physicochemical
Procedure: Samples were suspended at 0.5 mg/mL in PBS pH 7.4 and particle size was determined using dynamic light scattering (Malvern ZetaSizer Ultra).

CT26 tumors = test: CT26 tumor model, single intratumoral injection of 35 nmol STINGa; type: in vivo, BALB/c mice; conditions: 35 nmol STINGa IT, versus vehicle or free STINGa
Procedure: Tumor size was measured by digital calipers (FIG. 11B) and survival (FIG. 11C) were assessed up to 80 days after tumor implantation.
To assess the impact of linkage on efficacy in vivo, select compositions were tested in tumor-bearing mice (FIG. 11). The study design is shown in (FIG. 11A). BALB/c mice were implanted subcutaneously with 10^5 cells of the syngeneic tumor line CT26 on day 0. Tumors were allowed to grow until all mice in the study had palpable tumors. On day 12, mice were treated with a single intratumoral (IT) injection of 35 nmol of the STINGa as either (i) Compound 56 (amide linkage); (ii) Compound 94 hydrazone (Hz) linkage; or (iii) the free STINGa. An additional group of mice was treated with the formulation vehicle (7% DMSO in PBS) as a negative control. Tumors were measured biweekly to track tumor growth after treatment.

[2] = test system: Interferon-gamma-induced protein 10 (IP-10); test: Serum IP-10 (ELISA) 4 hours after intratumoral injection (tolerability); type: in vivo, C57BL/6 mice; conditions: 4 hours after 7 nmol IT
Procedure: (§3) Tumor size was measured by digital calipers for up to 30 days after tumor implantation (FIG. 12 B & C). To assess acute toxicity, mice were bled 4 hours after treatment, and blood IP-10 concentration was assessed by ELISA (FIG. 12D).
(§4) To further assess the impact of linkage on efficacy and tolerability in vivo, select compositions of the Compound listed in Table 9 were evaluated in tumor-bearing mice (FIG. 12). The study design is shown in (FIG. 12A). […] Tumors were allowed to grow until all mice in the study had palpable tumors. On day 11, mice were treated with a single intratumoral (IT) injection of 7 nmol of STINGa (diABZI) as either Compound 56, Compound 94, Compound 95, Compound 96 or Compound 97 in PBS. As a control, a group of mice was treated with the formulation vehicle (7% DMSO in PBS). Tumors were measured biweekly to track tumor growth after treatment. Tolerability was assessed by measuring the amount of Interferon-gamma-induced protein 10 (IP-10) in the serum of animals 4 hours after intratumoral injection.

MC38 tumors = test: MC38 tumor model, single intratumoral injection of 7 nmol STINGa (diABZI); type: in vivo, C57BL/6 mice; conditions: 7 nmol STINGa IT day 11, versus vehicle / untreated
Procedure: as §3, §4

[3] = Turbidity (OD 490 nm) / solubility in PBS buffer at different pH; type: physicochemical

Compound: CCC(NC(=O)[C@@H](NC(=O)[C@@H]1CCCN1C(=O)[C@H](CO)NC(=O)CCNC(C)=O)C(C)C)C(=O)Nc1ccc2c(C)cc(=O)oc2c1 (some centres unmarked) [AI, Ac-A′SPVB-AMC] (HELM PEPTIDE1{[ac].[bAla].S.P.V.[CCC(N[*:1])C(=O)[*:2]].[Cc1cc(=O)oc2cc(N[*:1])ccc12]}$$$$V2.0)
- stability / cleavage in the presence of cathepsin B (human cathepsin B): metabolized quickly
- stability in mouse plasma (mouse plasma enzymes): metabolized quickly

Compound: CCC(NC(=O)[C@H](CO)NC(=O)[C@H](CCCCN)NC(=O)[C@H](CO)NC(=O)CCNC(C)=O)C(=O)Nc1ccc2c(C)cc(=O)oc2c1 (some centres unmarked) [AL, Ac-A′SKSB-AMC] (HELM PEPTIDE1{[ac].[bAla].S.K.S.[CCC(N[*:1])C(=O)[*:2]].[Cc1cc(=O)oc2cc(N[*:1])ccc12]}$$$$V2.0)
- stability / cleavage in the presence of cathepsin B (human cathepsin B): readily cleaved
- stability in mouse plasma (mouse plasma enzymes): significant stability

Compound: CCCCC(NC(=O)[C@@H](NC(=O)CCNC(C)=O)C(C)C)C(=O)Nc1ccc2c(C)cc(=O)oc2c1 (some centres unmarked) [AM, Ac-A′VnL-AMC] (HELM PEPTIDE1{[ac].[bAla].V.[CCCCC(N[*:1])C(=O)[*:2]].[Cc1cc(=O)oc2cc(N[*:1])ccc12]}$$$$V2.0)
- stability / cleavage in the presence of cathepsin B (human cathepsin B): metabolized quickly
- stability in mouse plasma (mouse plasma enzymes): metabolized quickly

Compound: CCCC[C@H](NC(=O)[C@@H](NC(=O)[C@@H]1CCCN1C(=O)[C@H](CO)NC(=O)CCNC(C)=O)C(C)C)C(=O)Nc1ccc2c(C)cc(=O)oc2c1 [AN, Ac-A′SPVnL-AMC] (HELM PEPTIDE1{[ac].[bAla].S.P.V.[Nle].[Cc1cc(=O)oc2cc(N[*:1])ccc12]}$$$$V2.0)
- stability / cleavage in the presence of cathepsin B (human cathepsin B): metabolized quickly
- stability in mouse plasma (mouse plasma enzymes): metabolized quickly

Compound: CCCC[C@H](NC(=O)[C@H](CO)NC(=O)[C@H](CCCCNC(C)=O)NC(=O)[C@H](CO)NC(=O)CCNC(C)=O)C(=O)Nc1ccc2c(C)cc(=O)oc2c1 [AO, Ac-A′SK(Ac) SnL-AMC] (HELM PEPTIDE1{[ac].[bAla].S.K.S.[Nle].[Cc1cc(=O)oc2cc(N[*:1])ccc12]}|PEPTIDE2{[ac]}$PEPTIDE1,PEPTIDE2,4:R3-1:R2$$$V2.0)
- stability / cleavage in the presence of cathepsin B (human cathepsin B): readily cleaved
- stability in mouse plasma (mouse plasma enzymes): significant stability

Compound: CCCCC(NC(=O)[C@H](CO)NC(=O)[C@H](CCCCN)NC(=O)[C@H](CO)NC(=O)CCNC(C)=O)C(=O)Nc1ccc2c(C)cc(=O)oc2c1 (some centres unmarked) [AP, Ac-A′SKSnL-AMC] (HELM PEPTIDE1{[ac].[bAla].S.K.S.[CCCCC(N[*:1])C(=O)[*:2]].[Cc1cc(=O)oc2cc(N[*:1])ccc12]}$$$$V2.0)
- stability / cleavage in the presence of cathepsin B (human cathepsin B): readily cleaved
- stability in mouse plasma (mouse plasma enzymes): significant stability

Compound: CC[C@H](NC(=O)[C@@H](NC(=O)CCNC(C)=O)C(C)C)C(=O)Nc1ccc2c(C)cc(=O)oc2c1 [Compound AH, Ac-A′VB-AMC] (HELM PEPTIDE1{[ac].[bAla].V.[Abu].[Cc1cc(=O)oc2cc(N[*:1])ccc12]}$$$$V2.0)
- stability / cleavage in the presence of cathepsin B (human cathepsin B): metabolized quickly
- stability in mouse plasma (mouse plasma enzymes): metabolized quickly

Compound: CCC(NC(=O)[C@@H](NC(=O)[C@H](CCCCNC(C)=O)NC(=O)[C@H](CO)NC(=O)CCNC(C)=O)C(C)C)C(=O)Nc1ccc2c(C)cc(=O)oc2c1 (some centres unmarked) [Compound AJ, Ac-A′SK(Ac) VB-AMC] (HELM PEPTIDE1{[ac].[bAla].S.K.V.[CCC(N[*:1])C(=O)[*:2]].[Cc1cc(=O)oc2cc(N[*:1])ccc12]}|PEPTIDE2{[ac]}$PEPTIDE1,PEPTIDE2,4:R3-1:R2$$$V2.0)
- stability / cleavage in the presence of cathepsin B (human cathepsin B): relatively stable
- stability in mouse plasma (mouse plasma enzymes): relatively stable

Compound: CCC(NC(=O)[C@H](CO)NC(=O)[C@H](CCCCNC(C)=O)NC(=O)[C@H](CO)NC(=O)CCNC(C)=O)C(=O)Nc1ccc2c(C)cc(=O)oc2c1 (some centres unmarked) [Compound AK, Ac-A′SK(Ac) SB-AMC] (HELM PEPTIDE1{[ac].[bAla].S.K.S.[CCC(N[*:1])C(=O)[*:2]].[Cc1cc(=O)oc2cc(N[*:1])ccc12]}|PEPTIDE2{[ac]}$PEPTIDE1,PEPTIDE2,4:R3-1:R2$$$V2.0)
- stability / cleavage in the presence of cathepsin B (human cathepsin B): readily cleaved
- stability in mouse plasma (mouse plasma enzymes): significant stability

Compound: N3-p[(HPMA)-co-(MA-b-Ala-Hz-HA-diABZI)]-Pg [Compound 94]
- Rh (nm) at pH 7.4 [1]: 10.0 nm
- survival (CT26 tumors): improved
- tumor control / tumor growth (CT26 tumors): improved tumor control
- serum IP-10 level compared to free STINGa [2]: similar
- tumor control (MC38 tumors): improved tumor control

Compound: N3-p[(HPMA)-co-(MA-b-Ala-PEG4-VZ-PAB-diABZI)]-Pg [Compound 97]
- Rh (nm) at pH 7.4 [1]: 7.6 nm
- serum IP-10 level compared to free STINGa [2]: lower
- tumor control (MC38 tumors): improved tumor control

Compound: N3-p[(HPMA)-co-(MA-b-Ala-VZ-PAB-diABZI)]-Pg [Compound 96]
- Rh (nm) at pH 7.4 [1]: 26.9 nm
- serum IP-10 level compared to free STINGa [2]: lower
- tumor control (MC38 tumors): improved tumor control

Compound: N3-p[(HPMA)-co-(MA-b-Ala-cHz-HA-diABZI)]-Pg [Compound 95]
- Rh (nm) at pH 7.4 [1]: 7.3 nm
- serum IP-10 level compared to free STINGa [2]: lower
- tumor control (MC38 tumors): improved tumor control

Compound: N3-poly(HPMA-co-Ma-b-Ala-2BXy-co-Ma-b-Ala-COOH)-Pg [Compound 48]
- Rh (nm) at pH 6.5 [1]: 48.0 nm
- Turbidity at pH 6.5 [3]: Aggregate
- Turbidity at pH 7.4 [3]: 0.043

Compound: N3-poly(HPMA-co-Ma-b-Ala-2BXy-co-Ma-b-Ala-dimethylethylenediamine)-Pg [Compound 52]
- Rh (nm) at pH 6.5 [1]: 4.1 nm

Compound: N3-poly(HPMA-co-Ma-b-Ala-diABZI)-Pg [Compound 56]
- Rh (nm) at pH 7.4 [1]: (aggregate)
- survival (CT26 tumors): comparable to the mice that received the vehicle
- tumor control / tumor growth (CT26 tumors): comparable to the mice that received the vehicle
- tumor control (MC38 tumors): not

Compound: N3-poly[(HPMA-co-Ma-b-Ala-2BXy)-b-(HPMA-co-Ma-propyl-NH2)]-Pg [Compound 68]
- Rh (nm) at pH 6.5 [1]: 5.6 nm
- Rh (nm) at pH 7.4 [1]: 6.5 nm

Compound: N3-poly[(HPMA-co-Ma-b-Ala-2BXy)-b-HPMA]-Pg [Compound 62]
- Rh (nm) at pH 6.5 [1]: 6.9 nm
- Rh (nm) at pH 7.4 [1]: 6.6 nm
- Turbidity at pH 6.5 [3]: 0.039
- Turbidity at pH 7.4 [3]: 0.039

Compound: PAMAM-g-poly[(HPMA-co-Ma-b-Ala-2BXy)-b-(HPMA-co-Ma-propyl-NH2]-Pg [Compound 80]
- Rh (nm) at pH 7.4 [1]: 12.4 nm
- Turbidity at pH 7.4 [3]: 0.043

Compound: PAMAM-g-poly[(HPMA-co-Ma-b-Ala-2BXy)-b-HPMA]-Pg [Compound 78]
- Rh (nm) at pH 7.4 [1]: 12.9 nm
- Turbidity at pH 7.4 [3]: 0.041
